From publication PMC5021139 (Journal of Neuroendocrinology, 2016)
Values belong to the molecule of their own block, whether it stands above or below them. *1 amine or outer side, *2 acyl side, *3 side chain or, on linkers, in order; H or OH if unused. Where a SMILES comes first, the peptide text is derived from it. Bridges are numbered along the chain shown (N, C = ends). Where no end group is shown, it is not given here. X1 = O=C(CCC[*:2])[*:1]

What was measured:
[1] = system: somatostatin receptor (SST2R); parameters: method as in PMID 25012983; conditions: functioning gastroenteropancreatic neuroendocrine tumours; cited from earlier work
[2] = molecular target: T1, human oxytocin receptor (hOXTR) (Homo sapiens, UniProt P30559)
[3] = molecular target: T1, human oxytocin receptor (hOXTR); test: cell-based; conditions: HEK293, read-out: maximal activation (BRETmax) relative to oxytocin
[4] = system: aminopeptidase and disulphidase; conditions: cited from earlier work
[5] = cited from earlier work
[6] = molecular target: T1, human oxytocin receptor (hOXTR); conditions: carbetocin vs oxytocin
[7] = system: human vasopressin V1a receptor (V1aR); test: BRET2 G-protein activation at V1aR in HEK293 cells; format: cell-based; conditions: 10 μM ligand, 2 min, Gq, Gi1, Gi2, Gi3, Go, minimum of three experiments
From the text: (A) V1aR or (B) V1bR were transfected together with GFP10‐Gγ2, Gβ1 and different Rluc8‐tagged Gα subunits: Gq, Gi1, Gi2, Gi3, Go.

[8] = system: human vasopressin V1b receptor (V1bR); test: BRET2 G-protein activation at V1bR in HEK293 cells; conditions: 10 μM ligand, 2 min, Gq, Gi1, Gi2, Gi3, Go, minimum of three experiments
OXTR = conditions: cited from earlier work
[9] = parameters: method as in PMID 6831225; conditions: cited from earlier work
[10] = parameters: method as in PMID 6831225; conditions: parenteral administration; cited from earlier work
[11] = molecular target: T2, human oxytocin receptor fused to Renilla luciferase (hOXTR‐Rluc) (human, UniProt P30559 1-389); test: FRET or BRET; kinetic BRET1 in HEK293 cells co-transfected with hOXTR-Rluc (donor) and β-arrestin1- or β-arrestin2-Venus (acceptor); cells in PBS with 0.1% glucose at room temperature; coelenterazine h added 8 min before oxytocin (10 μM); read in real time for 5 min; conditions: partners not purified
T2 construct: oxytocin receptor, human; Rluc introduced at the C-terminus; source: HEK293, transfected (PEI), in living cells; not shown: Rluc (Renilla luciferase), C-terminal, kept
T2 sequence (looked up): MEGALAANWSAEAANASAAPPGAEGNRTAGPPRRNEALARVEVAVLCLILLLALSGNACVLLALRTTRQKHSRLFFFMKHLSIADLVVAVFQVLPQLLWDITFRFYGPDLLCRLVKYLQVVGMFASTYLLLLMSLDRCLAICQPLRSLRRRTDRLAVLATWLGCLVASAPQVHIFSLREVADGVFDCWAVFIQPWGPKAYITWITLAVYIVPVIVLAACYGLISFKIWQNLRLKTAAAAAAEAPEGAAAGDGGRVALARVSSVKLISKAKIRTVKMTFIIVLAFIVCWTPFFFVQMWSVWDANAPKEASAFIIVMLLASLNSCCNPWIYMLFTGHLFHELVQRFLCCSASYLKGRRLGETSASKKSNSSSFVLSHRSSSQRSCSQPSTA

Molecule: octreotide
antisecretory potency on long-term treatment [1]: antisecretory potency decreased with long‐term treatment as a consequence of the persistent internalisation of SST2R

EC50 of Gq activation (BRET2 between Gαq-Rluc8 and GFP10-Gγ2) in HEK293 cells expressing hOXTR, 10^-13 to 10^-5 M, 2 min [2]: 48.8 nM | maximal activation (BRETmax) of the Gq biosensor in HEK293 cells expressing hOXTR, against that of oxytocin (% of oxytocin) [2]: 45
Molecule: carbetocin (deamino‐1‐monocarba‐(2‐O‐methyltyrosine)‐oxytocin) (peptide)

Molecule: CC[C@H](C)[C@@H]1NC(=O)[C@H](Cc2ccc(OC)cc2)NC(=O)CCCSC[C@@H](C(=O)N2CCC[C@H]2C(=O)N[C@@H](CC(C)C)C(=O)NCC(N)=O)NC(=O)[C@H](CC(N)=O)NC(=O)[C@H](CCC(N)=O)NC1=O [carbetocin, deamino‐1‐monocarba‐(2‐O‐methyltyrosine)‐oxytocin] (Y(Me)IQNCPLG-NH2; linker N-5 via X1)
Emax [3]: 45 ± 6% | protection from aminopeptidase degradation and disulphidase cleavage [4]: very effective protection of carbetocin from aminopeptidase degradation and disulphidase cleavage | half-life in the peripheral circulation [5]: 85 to 100 min | reduction in maximal OXTR/Gq activation compared to oxytocin [6]: 50%

Molecule: arginine vasopressin: neuropeptide arginine vasopressin, obtained from Bachem (CYFQNCPRG; not fully specified (C-terminus, bridges); cysteine pairing not given here; UniProt P01185 20-28, looked up)
V1aR activation, all G-proteins tested [7]: significantly promoted the coupling/activation | V1bR activation, all G-proteins tested [8]: significantly promoted the coupling/activation

Molecule: atosiban
G-protein functional selectivity (OXTR): a Gi3 functional selective agonists

Molecule: CC[C@H](C)[C@@H]1NC(=O)[C@H](Cc2ccc(O)cc2)NC(=O)[C@@H](N)CSSC[C@@H](C(=O)N2CCC[C@H]2C(=O)N[C@@H](CC(C)C)C(=O)NCC(N)=O)NC(=O)[C@H](CC(N)=O)NC(=O)[C@H](CCC(N)=O)NC1=O [oxytocin]
half-life in the peripheral circulation [5]: 3.4 min | half-life in the plasma [5]: short half‐life in the plasma | half-life in the cerebrospinal fluid [9]: short half‐life | blood-brain barrier crossing [10]: does not cross the blood–brain barrier in a significant amount

t1/2 of the oxytocin-induced increase of the BRET ratio [11]: 1.98 min
B1: β‐arrestin1‐Venus (natural protein, UniProt P49407 1-418, looked up)
chain: MGDKGTRVFKKASPNGKLTVYLGKRDFVDHIDLVDPVDGVVLVDPEYLKERRVYVTLTCAFRYGREDLDVLGLTFRKDLFVANVQSFPPAPEDKKPLTRLQERLIKKLGEHAYPFTFEIPPNLPCSVTLQPGPEDTGKACGVDYEVKAFCAENLEEKIHKRNSVRLVIRKVQYAPERPGPQPTAETTRQFLMSDKPLHLEASLDKEIYYHGEPISVNVHVTNNTNKTVKKIKISVRQYADICLFNTAQYKCPVAMEEADDTVAPSSTFCKVYTLTPFLANNREKRGLALDGKLKHEDTNLASSTLLREGANREILGIIVSYKVKVKLVVSRGGLLGDLASSDVAVELPFTLMHPKPKEEPPHREVPENETPVDTNLIELDTNDDDIVFEDFARQRLKGMKDDKEEEEDGTGSPQLNNR
notes: β-arrestin1; Venus (yellow variant of GFP) fused to its C-terminus; vector provided by Professor M. Locati; source: HEK293, transfected (PEI), in living cells; not shown: Venus, C-terminal, kept
